{"source": "patent EP4682141A1", "about": "“TRICYCLIC COMPOUND” (ONO Pharmaceutical Co., Ltd., priority 2023, dated 2024)", "key": {"[1]": {"system": "rat 5/6 kidney-removed model", "assay": "in vivo drug efficacy on renal damage in rat 5/6 kidney-removed model", "parameters": "species or system Jcl: Wistar (Wistar) rats", "settings": "after 8 weeks from the start of administration", "from_the_text": "The obtained urine sample was centrifuged, and the supernatant was subjected to measurement."}, "[2]": {"molecular_target": "T1, EP1 (Homo sapiens, UniProt P34995)", "T1 construct": "expressed in transfected cells; host or cells: CHO (EP1-CHO)", "T1 sequence (P34995 1-402)": "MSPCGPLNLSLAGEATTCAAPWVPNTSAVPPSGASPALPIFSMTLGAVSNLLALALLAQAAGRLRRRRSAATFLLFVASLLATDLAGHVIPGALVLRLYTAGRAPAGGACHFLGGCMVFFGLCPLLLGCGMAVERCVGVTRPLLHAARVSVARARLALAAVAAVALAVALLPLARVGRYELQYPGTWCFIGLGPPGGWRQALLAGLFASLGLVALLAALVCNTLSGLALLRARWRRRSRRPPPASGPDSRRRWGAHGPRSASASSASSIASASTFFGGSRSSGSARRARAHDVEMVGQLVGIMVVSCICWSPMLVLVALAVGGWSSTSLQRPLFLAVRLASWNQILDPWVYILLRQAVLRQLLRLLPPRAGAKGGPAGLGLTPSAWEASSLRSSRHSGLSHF", "assay": "agonist activity on human EP1 receptor (intracellular calcium concentration, EP1-CHO cells)", "format": "cell-based", "description": "(§1) Using CHO cells (EP1-CHO, EP2-CHO, EP3-Chem1, EP4-CHO and IP-CHO) on which various human prostanoid receptors were forcibly expressed, the agonist activity of the test compound on the various prostanoid receptors was examined using the intracellular calcium concentration for EP1 and EP3, and the intracellular cyclic AMP (hereinafter, abbreviated as cAMP) production amount for EP2, EP4 and IP as indices.\n(§2) The test compound and control substances (PGE2 and iloprost) were dissolved in dimethyl sulfoxide (DMSO) to prepare a 10 mmol/L solution. The prepared 10 mmol/L solution was thawed at the time of use, serially diluted using DMSO, and diluted with a buffer solution 1 for measurement (Hank's balanced salt solution (Thermofischer scientific) containing 1 w/v% human serum albumin (Sigma), 2 µmol/L indomethacin (Sigma), 2.5 mmol/L probenecid, and 10 mmol/L HEPES-NaOH (pH7.4)) or a buffer solution 2 for measurement (D-PBS (Nacalai Tesque) containing 0.1 w/v% human serum albumin, 2 µmol/L diclofenac (Sigma), and 1 mmol/L 3-isobutyl-1-methylxanthine (Sigma)) to perform experiments.\nThe intracellular calcium concentration was measured using Calcium 6 Assay Kit (Molecular Devices). On the day before the measurement, EP1-CHO and EP3-Chem 1 were obtained by thawing the frozen cells, suspended using Ham's F-12 medium (Thermofischer scientific) containing inactivated (56°C, 30 min) 9.8 vol% FBS (Thermofischer scientific) and penicillin-streptomycin (Nacalai Tesque), seeded into a 96 well UV plate to 1.0×10^5 cells per well, and static cultured at 37°C in the presence of 5%CO2. On the day of the measurement, the medium was removed, followed by addition of 120 µL of the Calcium indication solution dissolved in the buffer solution 1 for measurement and incubation at room temperature under light-shielding for about 1 hour. After 1 hour incubation, the 96 well UV plates were set in a fluorescence spectrophotometer (FDSS-7000, Hamamatsu Photonics) to measure the intracellular calcium concentration. Thirty microliters of the buffer solution 1 for measurement containing various concentrations of agonists were added, and the mixture was reacted. The intracellular calcium concentration was measured by irradiating the cells with 480 nm excitation light and measuring the fluorescence intensity at 540 nm."}, "[3]": {"system": "diabetic renal disease model rat", "assay": "in vivo drug efficacy in diabetic renal disease model rat (single kidney removal, saline)", "parameters": "species or system SDT.Cg-Leprfa/JttJcl (SDT-fatty rat)", "settings": "8 weeks after the start of administration", "description": "A diabetic renal disease model was created by extracting the unilateral kidneys of male SDT.Cg-Leprfa/JttJcl (SDT-fatty/Jcl, CLEA Japan) rats, a type 2 diabetes model, and then giving saline. The in vivo drug efficacy of the present compound on diabetic renal disease was evaluated in this model.\nMale SDT.Cg-Leprfa/JttJcl (SDT-fatty rat) aged 4 weeks was purchased from CLEA Japan, and subjected to experiments. The animals were fed ad libitum with Purina5008 (Japan SLC) from the time of arrival, and watered ad libitum. Water was given from the arrival and until 1 week from single kidney removal, and a 0.2 w/v% NaCl solution was given 1 week after single kidney removal.\nAfter acclimation breeding, the body weight was measured, and buprenorphine was subcutaneously administered at a dose of 0.01 mg/kg under inhalation anesthesia with isoflurane (Mayran). After removing hair from the right abdomen of the rat, the right abdomen was disinfected with ethanol and isodine for disinfection and incised to expose the right kidney. The renal artery and vein was ligated with a suture to stop the blood flow, the right kidney was totally removed, and the incision was sutured. The following day, analgesic buprenorphine was administered subcutaneously at a dose of 0.01 mg/kg.\nGrouping was performed 3 weeks after single kidney removal. The mice were divided into groups so that the average of the above parameters was almost equal between the groups on the basis of body weight, serum urea nitrogen (BUN), serum creatinine (S-CRE), serum total cholesterol (T-CHO), blood glucose level (GLU), neutral fat (TG), urinary protein (U-TP), urinary albumin (U-ALB), and creatinine clearance (CCr).\nAll of the compounds of Examples 25-7, 10, 11 and 12 were orally administered once a day for 8 weeks in combination with losartan (30 mg/kg), a renin angiotensin system inhibitor, and canagliflozin (10 mg/kg), a glucose co-transporter inhibitor. The compounds of Examples 25-7, 10, 11 and 12, and losartan were each dissolved in water for injection (Otsuka Pharmaceutical), and canagliflozin was suspended in a 0.5% methyl cellulose solution (Fujifilm Wako Pure Chemical Corporation) to prepare an administration solution. In the Control-1 group, water for injection which is a vehicle of losartan or the compound of Examples 25-7, 10, 11 or 12 was orally administered at 5 mL/kg, and a 0.5% methylcellulose solution which is a vehicle of canagliflozin was orally administered at 2.5 mL/kg once a day for 8 weeks. In the Control-2 group, losartan (30 mg/kg) dissolved in water for injection was orally administered at an administration volume of 2.5 mL/kg, canagliflozin (10 mg/kg) suspended in a 0.5% methyl cellulose solution was orally administered at an administration volume of 2.5 mL/kg, and water for injection which is a vehicle of the compounds of Examples 25-7, 10, 11 and 12 was orally administered at an administration volume of 2.5 mL/kg once a day for 8 weeks. The administration dose is described in Table 8.\nBlood was collected by puncturing the tail vein of the rat with an injection needle. Blood was collected in a tube for serum separation (BD Microtainer) and centrifuged to obtain serum. Urine was collected for 24 hours in a metabolic cage for rat under conditions in which a solid feed and water can be freely taken. The obtained urine sample was centrifuged, and the supernatant was subjected to measurement. The concentrations of BUN, S-CRE, T-CHO, TG, U-ALB, U-TP, GLU and U-CRE were measured by an automatic analyzer Hitachi 7180 (Hitachi High-Tech)."}, "[4]": {"system": "diabetes model rat", "assay": "inhibitory effect on the amount of albumin excreted in urine in diabetes model rat", "format": "in vivo, SDT Fatty rats", "settings": "urine collected for 24 hours, urine albumin/urine creatinine ratio", "description": "Male SDT Fatty rats aged 6 weeks (CLEA Japan) were purchased and preliminarily bred for 1 week or more. Experiments were performed at 8 to 16 weeks of age. The animals were fed ad libitum with solid feed CRF-1 (Oriental Yeast) and watered ad libitum.\nAnimals were housed in metabolic cages 2 days before test substance administration, and urine was collected for 24 hours. On the day before administration of the test substance, urine albumin and urine creatinine were measured, and grouping was performed by a stratification randomization method based on the urine albumin/urine creatinine ratio (ACR) and the average value of body weights for each group.\nThe compounds (test substances) of Examples 9-5, 10, 11, 12, 25-7 and 32, and water for injection (Otsuka Pharmaceutical) as a vehicle were orally administered once at 5 mL/kg. The administration dose is described in Table 3.\nFor evaluation of the amount of albumin excreted in urine of each animal, a urine albumin/urine creatinine ratio (ACR) was measured. After administration of the test substance, the animals were housed in metabolic cages, and urine was collected for 24 hours. Each concentration of urine albumin and urine creatinine was measured using an automatic analyzer 7180 (Hitachi High-Tech), and ACR was calculated by dividing the urine albumin concentration by the urine creatinine concentration."}, "[5]": {"molecular_target": "T2, EP3 receptor (Homo sapiens, UniProt P43115)", "T2 construct": "expressed in transfected cells; host or cells: EP3-Chem1", "T2 sequence (P43115 1-390)": "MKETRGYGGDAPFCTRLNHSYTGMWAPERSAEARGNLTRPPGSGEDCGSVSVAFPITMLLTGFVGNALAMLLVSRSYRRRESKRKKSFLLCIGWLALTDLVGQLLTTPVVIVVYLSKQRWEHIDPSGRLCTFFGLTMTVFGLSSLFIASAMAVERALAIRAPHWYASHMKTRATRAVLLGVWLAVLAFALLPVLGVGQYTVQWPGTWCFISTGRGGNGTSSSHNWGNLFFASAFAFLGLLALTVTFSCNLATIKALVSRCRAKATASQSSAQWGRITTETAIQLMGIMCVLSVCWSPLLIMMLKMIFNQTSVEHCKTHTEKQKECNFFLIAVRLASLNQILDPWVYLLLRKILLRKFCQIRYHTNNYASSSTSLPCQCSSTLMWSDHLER", "assay": "agonist activity on human EP3 receptor (intracellular calcium concentration, EP3-Chem1 cells)", "format": "cell-based", "settings": "agonist activity on the EP3 receptor", "description": "as §1, §2"}, "[6]": {"molecular_target": "T3, EP2 (Homo sapiens, UniProt P43116)", "T3 construct": "expressed in transfected cells; host or cells: CHO (EP2-CHO)", "T3 sequence (P43116 whole entry)": "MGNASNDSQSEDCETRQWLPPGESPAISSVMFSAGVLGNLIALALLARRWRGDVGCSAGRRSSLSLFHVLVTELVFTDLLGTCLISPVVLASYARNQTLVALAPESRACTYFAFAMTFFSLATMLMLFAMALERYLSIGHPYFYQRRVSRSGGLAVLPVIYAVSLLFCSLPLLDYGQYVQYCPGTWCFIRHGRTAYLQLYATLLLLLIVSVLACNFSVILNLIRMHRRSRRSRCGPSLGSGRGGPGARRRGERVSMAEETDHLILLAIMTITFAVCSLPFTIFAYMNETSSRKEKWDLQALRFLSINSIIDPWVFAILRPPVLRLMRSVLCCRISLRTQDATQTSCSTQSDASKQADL", "assay": "agonist activity on human EP2 receptor (cAMP production, EP2-CHO cells)", "format": "cell-based", "description": "as §1\n(§3) The test compound and control substances (PGE2 and iloprost) were dissolved in dimethyl sulfoxide (DMSO) to prepare a 10 mmol/L solution. […]\n(§4) On the day of the measurement, EP2-CHO, EP4-CHO, and IP-CHO were obtained by thawing frozen cells. […] The cAMP concentration was measured using a cAMP HTRF HiRange kit (CIS bio International). […] After incubation for 1 hour, time-resolved fluorescence at 620 nm and 660 nm when excited at 340 nm was measured using Synergy Neo (Bioteck), and the ratio (TRF ratio) was determined to calculate the cAMP concentration from the calibration curve."}, "[7]": {"molecular_target": "T4, IP (Homo sapiens, UniProt P43119)", "T4 construct": "expressed in transfected cells; host or cells: CHO (IP-CHO)", "T4 sequence (P43119 whole entry)": "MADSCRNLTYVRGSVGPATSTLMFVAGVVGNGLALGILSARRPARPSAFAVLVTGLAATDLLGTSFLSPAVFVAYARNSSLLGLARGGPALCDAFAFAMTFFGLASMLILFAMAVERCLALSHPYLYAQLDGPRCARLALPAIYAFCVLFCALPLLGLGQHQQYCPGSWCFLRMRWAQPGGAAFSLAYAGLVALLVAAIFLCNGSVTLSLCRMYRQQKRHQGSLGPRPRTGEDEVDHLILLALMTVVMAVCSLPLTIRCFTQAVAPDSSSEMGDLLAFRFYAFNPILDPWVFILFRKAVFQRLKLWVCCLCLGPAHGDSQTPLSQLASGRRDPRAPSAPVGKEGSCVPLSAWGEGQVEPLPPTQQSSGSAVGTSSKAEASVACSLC", "assay": "agonist activity on human IP receptor (cAMP production, IP-CHO cells)", "format": "cell-based", "description": "as §1, §3, §4"}, "[8]": {"molecular_target": "T5, EP4 (Homo sapiens, UniProt P35408)", "T5 construct": "expressed in transfected cells; host or cells: CHO (EP4-CHO)", "T5 sequence (P35408 whole entry)": "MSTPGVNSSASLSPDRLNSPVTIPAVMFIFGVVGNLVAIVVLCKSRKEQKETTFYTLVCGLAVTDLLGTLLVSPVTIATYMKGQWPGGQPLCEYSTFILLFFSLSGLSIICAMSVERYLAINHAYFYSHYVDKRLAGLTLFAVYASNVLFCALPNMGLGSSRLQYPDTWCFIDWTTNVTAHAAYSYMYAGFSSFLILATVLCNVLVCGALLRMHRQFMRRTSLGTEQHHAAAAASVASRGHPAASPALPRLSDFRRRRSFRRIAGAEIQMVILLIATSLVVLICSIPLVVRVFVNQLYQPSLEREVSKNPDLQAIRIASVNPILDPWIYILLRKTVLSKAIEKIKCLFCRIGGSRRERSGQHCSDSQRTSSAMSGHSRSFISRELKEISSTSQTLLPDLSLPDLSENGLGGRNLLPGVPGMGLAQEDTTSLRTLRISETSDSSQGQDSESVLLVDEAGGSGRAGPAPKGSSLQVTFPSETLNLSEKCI", "assay": "agonist activity on human EP4 receptor (cAMP production, EP4-CHO cells)", "format": "cell-based", "description": "as §1, §3, §4"}}, "data": [{"compound": "CCC(CCC(C)C)C(O)/C=C/[C@@H]1[C@H]2CCc3ccc(C(=O)O)c(C)c3O[C@H]2C[C@H]1O", "note": "(stereo partly drawn) [Example 10, (1R,2R,3aS,10aR)-1-[(1E,3ξ,4ξ)-4-ethyl-3-hydroxy-7-methyl-1-octen-1-yl]-2-hydroxy-5-methyl-2,3,3a,9,10,10a-hexahydro-1H-benzo[b]cyclopenta[f]oxepine-6-carboxylic acid]", "values": [{"measurement": "Amount of albumin excreted in urine mean", "setting": "[1]; 0.1 mg/kg orally once a day for 8 weeks", "result": 35.47, "unit": "mg/24 h"}, {"measurement": "EC50", "setting": "[2]", "result": "> 10", "unit": "µM"}, {"measurement": "Serum creatinine mean", "setting": "[3]; 0.1 mg/kg orally once a day for 8 weeks in combination with losartan (30 mg/kg) and canagliflozin (10 mg/kg)", "result": 0.50, "unit": "mg/dL"}, {"measurement": "ACR mean", "setting": "[4]; 0.01 mg/kg orally once", "result": 909.3, "unit": "µg/mg"}, {"measurement": "ACR mean", "setting": "[4]; 0.1 mg/kg orally once", "result": 751.6, "unit": "µg/mg"}]}, {"compound": "Cc1c(C(=O)O)ccc2c1O[C@H]1C[C@@H](O)[C@H](/C=C/C[C@@](C)(O)CCC(F)=C(F)F)[C@H]1CC2", "note": "[Example 11, (1R,2R,3aS,10aR)-2-hydroxy-5-methyl-1-[(1E,45)-7,8,8-trifluoro-4-hydroxy-4-methyl-1,7-octadien-1-yl]-2,3,3a,9,10,10a-hexahydro-1H-benzo[b]cyclopenta[f]oxepine-6-carboxylic acid]", "values": [{"measurement": "Amount of albumin excreted in urine mean", "setting": "[1]; 0.01 mg/kg orally once a day for 8 weeks", "result": 46.01, "unit": "mg/24 h"}, {"measurement": "Amount of albumin excreted in urine mean", "setting": "[1]; 0.03 mg/kg orally once a day for 8 weeks", "result": 37.94, "unit": "mg/24 h"}, {"measurement": "EC50", "setting": "[2]", "result": "> 10", "unit": "µM"}, {"measurement": "Serum creatinine mean", "setting": "[3]; 0.01 mg/kg orally once a day for 8 weeks in combination with losartan (30 mg/kg) and canagliflozin (10 mg/kg)", "result": 0.46, "unit": "mg/dL"}, {"measurement": "Serum creatinine mean", "setting": "[3]; 0.03 mg/kg orally once a day for 8 weeks in combination with losartan (30 mg/kg) and canagliflozin (10 mg/kg)", "result": 0.47, "unit": "mg/dL"}, {"measurement": "ACR mean", "setting": "[4]; 0.01 mg/kg orally once", "result": 1010.5, "unit": "µg/mg"}, {"measurement": "ACR mean", "setting": "[4]; 0.03 mg/kg orally once", "result": 575.3, "unit": "µg/mg"}]}, {"compound": "(1R,2R,3aS,10aR)-2,5-difluoro-1-[(1E,3ξ)-3-hydroxy-4-methyl-4-phenyl-1-penten-yl]-2,3,3a,9,10,10a-hexahydro-1H-benzo[b]cyclopenta[f]oxepine-6-carboxylic acid [Example 28]", "values": [{"measurement": "EC50", "setting": "[5]", "result": 0.03, "unit": "µM"}, {"measurement": "EC50", "setting": "[6]", "result": "> 10", "unit": "µM"}, {"measurement": "EC50", "setting": "[7]", "result": "> 10", "unit": "µM"}, {"measurement": "EC50", "setting": "[2]", "result": "> 10", "unit": "µM"}, {"measurement": "EC50", "setting": "[8]", "result": 1.1, "unit": "µM"}]}]}
